From patent US11420973B2, “Amide substituted indole compounds useful as TLR inhibitors” (BRISTOL-MYERS SQUIBB COMPANY, priority 2017, dated 2022)

Tests used:
human TLR7 = human TLR7 (Homo sapiens (Human), UniProt Q9NYK1); experiment: TLR7 inhibition reporter assay (HEK-Blue SEAP reporter, gardiquimod stimulation); assay type: cell-based; details: HEK-Blue cells overexpressing human TLR7, gardiquimod 7.5 μM
Method: HEK-Blue™-cells (Invivogen) overexpressing human TLR7, TLR8 or TLR9 receptors were used for screening inhibitors of these receptors using an inducible SEAP (secreted embryonic alkaline phosphatase) reporter gene under the control of the IFN-β minimal promoter fused to five NF-κB and AP-1-binding sites. Briefly, cells are seeded into Greiner 384 well plates (15000 cells per well for TLR7, 20,000 for TLR8 and 25,000 for TLR9) and then treated with test compounds in DMSO to yield a final dose response concentration range of 0.05 nM-50 μM. After a 30 minute compound pre-treatment at room temperature, the cells are then stimulated with a TLR7 ligand (gardiquimod at a final concentration of 7.5 μM), TLR8 ligand (R848 at a final concentration of 15.9 μM) or TLR9 ligand (ODN2006 at a final concentration of 5 nM) to activate NF-κB and AP-1 which induce the production of SEAP. After a 22 hour incubation at 37° C., 5% CO2, SEAP levels are determined with the addition of HEK-Blue™ Detection reagent (Invivogen), a cell culture medium that allows for detection of SEAP, according to manufacturer's specifications.

human TLR8 = human TLR8 (Homo sapiens (Human), UniProt Q9NR97); experiment: TLR8 inhibition reporter assay (HEK-Blue SEAP reporter, R848 stimulation); details: read-out: TLR8 IC50; HEK-Blue cells overexpressing human TLR8, R848 15.9 μM, SEAP reporter;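 further: SEAP driven by IFN-β minimal promoter with NF-κB and AP-1 sites, 22 h incubation, compounds 0.05 nM–50 µM, inhibition scaled between agonist plus DMSO and reference inhibitor wells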
human TLR9 = human TLR9 (Homo sapiens (Human), UniProt Q9NR96); experiment: TLR9 inhibition reporter assay (HEK-Blue SEAP reporter, ODN2006 stimulation); details: read-out: TLR9 IC50; HEK-Blue cells overexpressing human TLR9, ODN2006 5 nM, SEAP reporter;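 further: SEAP reporter under IFN-β minimal promoter with five NF-κB and AP-1 sites, 22 h incubation, compounds 0.05 nM–50 µM, inhibition relative to agonist plus DMSO versus known inhibitor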
Sequence of human TLR9 (Q9NR96 26-1032): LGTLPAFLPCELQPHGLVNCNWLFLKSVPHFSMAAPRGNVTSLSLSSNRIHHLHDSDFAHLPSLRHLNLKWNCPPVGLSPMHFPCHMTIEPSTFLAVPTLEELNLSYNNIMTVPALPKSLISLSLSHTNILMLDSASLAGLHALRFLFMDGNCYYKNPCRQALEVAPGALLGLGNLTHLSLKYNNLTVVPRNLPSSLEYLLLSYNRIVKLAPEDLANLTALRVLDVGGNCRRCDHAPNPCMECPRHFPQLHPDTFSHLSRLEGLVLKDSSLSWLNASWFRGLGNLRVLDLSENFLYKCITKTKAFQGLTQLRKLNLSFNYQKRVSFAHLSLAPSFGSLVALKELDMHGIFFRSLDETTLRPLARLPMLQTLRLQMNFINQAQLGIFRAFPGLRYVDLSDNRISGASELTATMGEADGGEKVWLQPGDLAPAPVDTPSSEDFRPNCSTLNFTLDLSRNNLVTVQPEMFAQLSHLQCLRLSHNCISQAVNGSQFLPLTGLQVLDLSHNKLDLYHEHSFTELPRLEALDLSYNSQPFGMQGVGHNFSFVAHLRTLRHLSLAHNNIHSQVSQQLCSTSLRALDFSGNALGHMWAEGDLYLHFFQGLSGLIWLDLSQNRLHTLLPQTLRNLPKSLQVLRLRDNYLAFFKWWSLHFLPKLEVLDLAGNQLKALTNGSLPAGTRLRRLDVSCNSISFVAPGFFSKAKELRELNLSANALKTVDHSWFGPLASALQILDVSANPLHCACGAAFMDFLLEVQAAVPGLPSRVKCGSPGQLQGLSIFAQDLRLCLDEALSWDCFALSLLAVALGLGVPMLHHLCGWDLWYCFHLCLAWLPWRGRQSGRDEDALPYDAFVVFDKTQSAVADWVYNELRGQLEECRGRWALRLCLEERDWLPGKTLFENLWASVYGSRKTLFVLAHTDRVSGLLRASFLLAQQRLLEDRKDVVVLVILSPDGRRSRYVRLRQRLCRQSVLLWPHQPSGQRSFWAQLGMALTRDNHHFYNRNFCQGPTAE

Sequence of human TLR7 (Q9NYK1 27-1049): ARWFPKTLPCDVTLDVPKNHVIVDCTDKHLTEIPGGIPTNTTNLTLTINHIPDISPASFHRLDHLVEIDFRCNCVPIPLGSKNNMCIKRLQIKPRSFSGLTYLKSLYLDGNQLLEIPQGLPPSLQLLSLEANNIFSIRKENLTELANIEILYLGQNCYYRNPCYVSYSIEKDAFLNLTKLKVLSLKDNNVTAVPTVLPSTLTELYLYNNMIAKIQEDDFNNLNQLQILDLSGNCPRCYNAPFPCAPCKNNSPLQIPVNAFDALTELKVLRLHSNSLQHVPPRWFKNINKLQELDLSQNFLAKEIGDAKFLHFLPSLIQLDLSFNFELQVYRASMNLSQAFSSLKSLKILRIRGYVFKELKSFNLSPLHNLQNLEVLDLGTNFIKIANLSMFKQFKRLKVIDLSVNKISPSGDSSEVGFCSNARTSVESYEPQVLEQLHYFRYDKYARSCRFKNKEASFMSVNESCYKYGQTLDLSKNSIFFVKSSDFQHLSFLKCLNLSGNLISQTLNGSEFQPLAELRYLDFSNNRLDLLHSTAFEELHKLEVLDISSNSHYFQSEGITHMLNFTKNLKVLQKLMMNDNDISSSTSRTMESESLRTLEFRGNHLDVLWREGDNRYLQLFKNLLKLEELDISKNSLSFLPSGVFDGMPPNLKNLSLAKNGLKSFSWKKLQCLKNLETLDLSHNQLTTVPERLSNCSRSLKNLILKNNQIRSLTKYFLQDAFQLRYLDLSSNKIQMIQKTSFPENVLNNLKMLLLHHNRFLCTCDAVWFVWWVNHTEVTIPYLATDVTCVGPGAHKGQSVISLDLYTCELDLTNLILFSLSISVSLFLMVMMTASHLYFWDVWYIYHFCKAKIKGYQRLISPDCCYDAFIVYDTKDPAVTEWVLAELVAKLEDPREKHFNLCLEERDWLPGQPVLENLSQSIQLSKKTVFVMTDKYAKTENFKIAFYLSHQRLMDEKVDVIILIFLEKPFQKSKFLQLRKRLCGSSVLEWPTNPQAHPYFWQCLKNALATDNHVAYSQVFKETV
Sequence of human TLR8 (Q9NR97 27-1041): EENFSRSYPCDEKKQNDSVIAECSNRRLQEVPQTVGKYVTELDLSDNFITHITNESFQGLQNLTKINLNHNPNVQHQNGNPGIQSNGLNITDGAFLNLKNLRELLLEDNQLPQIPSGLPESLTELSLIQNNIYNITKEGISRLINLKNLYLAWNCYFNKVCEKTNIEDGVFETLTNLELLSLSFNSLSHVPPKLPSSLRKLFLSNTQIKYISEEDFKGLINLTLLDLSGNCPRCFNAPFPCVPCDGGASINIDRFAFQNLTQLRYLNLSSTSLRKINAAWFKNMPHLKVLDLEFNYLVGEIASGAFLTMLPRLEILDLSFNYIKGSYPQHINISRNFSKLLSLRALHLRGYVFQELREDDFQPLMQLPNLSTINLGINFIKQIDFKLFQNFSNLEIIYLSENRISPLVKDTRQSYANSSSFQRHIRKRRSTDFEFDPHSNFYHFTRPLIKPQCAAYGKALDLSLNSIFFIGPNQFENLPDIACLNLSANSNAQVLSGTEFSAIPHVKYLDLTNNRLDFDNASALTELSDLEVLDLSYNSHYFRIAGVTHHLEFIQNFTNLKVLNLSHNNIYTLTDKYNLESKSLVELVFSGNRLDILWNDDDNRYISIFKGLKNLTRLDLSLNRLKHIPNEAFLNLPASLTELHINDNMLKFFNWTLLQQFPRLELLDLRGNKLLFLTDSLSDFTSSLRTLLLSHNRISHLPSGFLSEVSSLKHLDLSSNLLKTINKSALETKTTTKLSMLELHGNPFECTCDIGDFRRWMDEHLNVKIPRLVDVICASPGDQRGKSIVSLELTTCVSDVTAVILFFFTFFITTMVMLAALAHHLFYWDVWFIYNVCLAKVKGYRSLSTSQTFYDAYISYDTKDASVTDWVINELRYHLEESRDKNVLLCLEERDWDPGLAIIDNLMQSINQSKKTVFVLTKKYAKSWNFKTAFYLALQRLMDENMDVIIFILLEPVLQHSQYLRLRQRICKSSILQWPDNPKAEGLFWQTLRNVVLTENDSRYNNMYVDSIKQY

SMILES | IC50 (human TLR7) [µM] | IC50 (human TLR8) [µM] | IC50 (human TLR9) [µM]
Cc1cc(-c2[nH]c3ccc(C(C)C(=O)NC4C[C@H]5CC[C@@H](C4)N5C)cc3c2C(C)C)ccn1 (stereo partly drawn) [Example 214, 2-(3-isopropyl-2-(2-methylpyridin-4-yl)-1H-indol-5-yl)-N-((1R,5S)-8-methyl-8-azabicyclo[3.2.1]octan-3-yl)propanamide] | 0.107 | 0.167 | 4.67
Cc1cc(-c2[nH]c3ccc(C(C)C(=O)N[C@@H]4CCCC[C@H]4N)cc3c2C(C)C)ccn1 (stereo partly drawn) [Example 215, N-((1R,2R)-2-aminocyclohexyl)-2-(3-isopropyl-2-(2-methylpyridin-4-yl)-1H-indol-5-yl)propanamide] | 0.148 | 0.174 | 1.37
Cc1cc(-c2[nH]c3ccc(C(C)C(=O)N[C@@H]4CCCC[C@H]4N)cc3c2C(C)C)ccn1 (stereo partly drawn) [Example 216, N-((1R,2R)-2-aminocyclohexyl)-2-(3-isopropyl-2-(2-methylpyridin-4-yl)-1H-indol-5-yl)propanamide] | 0.131 | 0.159 | 1.06
Cc1cc(-c2[nH]c3ccc(C(C)C(=O)NC4CCC(N)CC4)cc3c2C(C)C)ccn1 (stereo not drawn) [Example 217, N-(4-aminocyclohexyl)-2-(3-isopropyl-2-(2-methylpyridin-4-yl)-1H-indol-5-yl)propanamide] | 0.167 | 0.316 | 0.999
Cc1cc(-c2[nH]c3ccc(C(C)C(=O)NC4CCCC(N)C4)cc3c2C(C)C)ccn1 (stereo not drawn) [Example 218, N-(3-aminocyclohexyl)-2-(3-isopropyl-2-(2-methylpyridin-4-yl)-1H-indol-5-yl)propanamide] | 0.803 | 1.08 | 1.4
Cc1cc(-c2[nH]c3ccc(C(C)C(=O)NC4CCCC(N)C4)cc3c2C(C)C)ccn1 (stereo not drawn) [Example 219, N-(3-aminocyclohexyl)-2-(3-isopropyl-2-(2-methylpyridin-4-yl)-1H-indol-5-yl)propanamide] | 0.256 | 0.182 | 1.75
Cc1c(-c2[nH]c3ccc(C(=O)N(C)CCN(C)C)cc3c2C(C)C)cn(C)c(=O)c1Cl [Example 222, 2-(5-chloro-1,4-dimethyl-6-oxo-1,6-dihydropyridin-3-yl)-N-(2-(dimethylamino)ethyl)-3-isopropyl-N-methyl-1H-indole-5-carboxamide] | 0.022 | 0.01 | 6.92
